Consider one compound from patent US20240189278A1, “NOVEL COMPOUNDS AND METHODS FOR INCREASING KLOTHO GENE EXPRESSION” (Klotho Therapeutics, Inc., priority 2017, published 2024).

What all share (type): in vivo, mouse
One experiment concerns MMP9. Briefly: MMP9 activity by zymogram PAGE, aortas of aged mice. Conditions: zymography. As to the method:
(§1) Animal study protocols. This example was performed according to the guide lines of the National Institute of Health on the care and use of laboratory animals and approved by the institutional Animal Care and Use Committee of University of Oklahoma Health Science Center. AU mice were housed in cages at room temperature (2S±PC) and were provided with Purina laboratory chow No 5001) and tap Water and lithium. 6 adult mice (12 months) and 20 old mice (24-26 months) mice were next in this study. The old (aged) mice were randomly divided into three subgroups and each group had 6 or 7 mice. One subgroup received compound H (10 mg/kg/day1, IP, Enamine LLC, Monmouth Jct., NJ) and one group received an equal volume of DMSO (dimethyl sulfoxide, 5%) and served as a control. The third group received no treatment Blood pressure was measured before and after treatment with the active agent at 1 week and 2 week. Pulse wave velocity (PWV) was measured after 2 weeks treatment with active agent all animals were sacrificed and perfused transcardially with PBS under deep anesthesia (ketamine xylazine, 90/10 mg, IP). […]
(§2) Measurements for MMP2 and MMP9 Activity. MMP2 and MMP9 activity were measured by Zymogram PAGE (Bio˜-Rad). Briefly Lysates from thoracic aorta were quantified using BCA assay (Pierce) and prepared under non-reducing, non-denaturing conditions. […]

The next experiment deals with Klotho gene. Briefly: Methylation analyses of Klotho gene (methylation-specific PCR). Conditions: kidney of aged mice, 2 weeks treatment. As for the experimental part: as §1
Methylation Analyses of Klotho Gene: The methylation status of CpG islands of mice Klotho gene was analyzed using methylation-specific PCR (MSP) and bisulfite sequencing. […] The methylation index was calculated as (band intensity of MSP with methylated primers)/(band intensity of inputted control). […]

In another experiment the test system is aged mice. Briefly: Blood pressure by VPR tail-cuff method in aged mice. As to the method: Animal study protocols. This example was performed according to the guide lines of the National Institute of Health on the care and use of laboratory animals and approved by the institutional Animal Care and Use Committee of University of Oklahoma Health Science Center. AU mice were housed in cages at room temperature (2S±PC) and were provided with Purina laboratory chow No 5001) and tap Water and lithium. 6 adult mice (12 months) and 20 old mice (24-26 months) mice were next in this study. The old (aged) mice were randomly divided into three subgroups and each group had 6 or 7 mice. One subgroup received compound H (10 mg/kg/day1, IP, Enamine LLC, Monmouth Jct., NJ) and one group received an equal volume of DMSO (dimethyl sulfoxide, 5%) and served as a control. The third group received no treatment Blood pressure was measured before and after treatment with the active agent at 1 week and 2 week. Pulse wave velocity (PWV) was measured after 2 weeks treatment with active agent all animals were sacrificed and perfused transcardially with PBS under deep anesthesia (ketamine xylazine, 90/10 mg, IP). The aortas were then quickly removed, washed and cut into pieces for subsequent analyses.
Measurement of Blood Pressure: Blood pressure was measured by the volume-pressure recording (VPR) tail-cuff method with slight (28° C.) but not heating of the tail using it CODA none-invasive blood pressure monitoring system (Kent Scientific). This method of measurement has been validated by using a telemetry system. Animals were gently handled and trained for the VPR tail-cuff measurement to minimize handling stress. No signs of stress were observed during BP measurements. The operator was also strictly trained for the measurement procedure. At least 20 stable cycles data were obtained for the result analysis for each measurement.

In another experiment the test system is ALP. The experiment can be described thus: Western blot of ALP, aortas of aged mice. As to the method:
as §1
(§3) Western Blot Analysis: Protein samples from the thoracic aorta were prepared in Lysis buffer as described previously. […] Protein abundance on western blots was quantified densitometry using Image lab software (Bio-Rad, Hercules, CA).
(A western blot detects proteins with antibodies after separation by electrophoresis.)

A further experiment concerns secreted Klotho. The experiment can be described thus: Western blot of secreted Klotho in kidney and serum of aged mice.
In another experiment the test system is elastin. The experiment can be described thus: Elastin in aortas of aged mice (immunostaining and western blot). As for the experimental part:
as §1, with “One subgroup received compound H (10 mg/kg/day1, IP, Enamine LLC, Monmouth Jct., NJ) and one group received an equal volume of DMSO (dimethyl sulfoxide, 5%) and served as a control.” left out
Histological and Immunohistochemical Staining: Thoracic aortas were quickly excised and placed in cold (4′T) physiological saline solution. […] Aorta rings were post-fixed in 4% paraformaldehyde, embedded in paraffin and sectioned at […] thickness, Collagen was quantified by Masson' s trichrome staining as described previously. […] Blue-stained collagen areas were quantified with ImageJ (NIH, Bethesda, USA) film 4-5 regions per section. […]

In another experiment the test system is RUNX2. The experiment can be described thus: Western blot of RUNX2, aortas of aged mice. As to the method: as §1, §3
The test system of the next experiment is MMP2. The experiment can be described thus: MMP2 activity by zymogram PAGE, aortas of aged mice. Conditions: zymography. As to the method: as §1, §2
The subject of a further experiment is full-length Klotho. The experiment can be described thus: Western blot of full-length Klotho in kidney of aged mice. As to conditions: kidney of 24-26 month-old mice.
Setting [1] is: 10 mg/kg/day IP, 2 weeks treatment.

Take `O=C(Nc1ccccc1Cl)c1c[nH]c2ccccc12` [active agent, N-(2-chlorophenyl)-Ul-indde-3-carboxamide]: in the experiment on MMP9, the MMP9 activity entry was “decreased”. The “Methylation of Klotho gene” value with Klotho gene is reported as “inhibited”. In the experiment on aged mice (setting [1]), the Diastolic blood pressure result is “decreased”, the Mean blood pressure entry is reported as “decreased”, the Pulse pressure entry was “decreased” and the Systolic blood pressure entry is “decreased”. For the same compound, the Blood pressure entry in the experiment with aged mice (after 1 week of treatment) is on record as “decreased”. Also, the ALP expression entry in the experiment with ALP is given as “decreased”. In addition, in the experiment on secreted Klotho (kidney of 24-26 month-old mice), the “Secreted Klotho protein expression” value is “significantly increased”. Besides, the “Circulating levels of secreted Klotho” value in the experiment with secreted Klotho (serum of aged mice) is on record as “markedly increased”. The Elastin production result in the experiment on elastin was “increased”. Also, the RUNX2 expression result in the experiment with RUNX2 was “decreased”. Also, in the experiment with MMP2, the MMP2 activity entry was “decreased”. In addition, the “Full-length Klotho expression” value with full-length Klotho is “did not affect”.
